Test results taken from US12227501B2, “3-amino-2-[2-(acylamino)pyridin-4-yl]-1,5,6,7-tetrahydro-4h-pyrrolo[3,2-c]pyridin-4-one as CSNK1 inhibitors” (Bayer Aktiengesellschaft, priority 2019, dated 2025).
Several values for one entry are separate records, joined by “and”; a condition that tells them apart may be missing. Equal entries are not always repeated. Where two headings read alike, the source gives them in different places.

Assays:
Assay type in all cases: biochemical
[1] = target: human CSNK1A1 (Homo sapiens (Human), UniProt P48729); experiment: CSNK1A1 High ATP Assay (ADP-Glo, 1 mM ATP); details: read-out: CSNK1A1 high ATP assay IC50 [mol/l] (median)
Procedure, shortened: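 GST-tagged full-length human CSNK1A1 from baculovirus-infected insect cells (typically about 0.4 ng/μL), pre-incubated with compound 15 min at 22 °C. Reaction with biotinylated peptide biotin-Ahx-KRRRAL-pS-VASLPGL at 1 mM ATP. ADP formed read by ADP-Glo luminescence.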

[2] = target: human CSNK1D (Homo sapiens (Human), UniProt P48730); experiment: CSNK1D Assay (ADP-Glo, 1 μM ATP); details: read-out: CSNK1D IC50 [mol/l] (median)
Procedure, shortened: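 GST-tagged full-length human CSNK1D from baculovirus-infected insect cells, typically ~0.5 ng/μL, with biotinylated peptide substrate and 1 μM ATP in HEPES pH 7.5 buffer. Compound is preincubated with enzyme 15 min at 22 °C. ADP formed is quantified by ADP-Glo luminescence.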

[3] = target: wild-type Epidermal Growth Factor Receptor (EGFR) (Homo sapiens (Human), UniProt P00533); experiment: WT-EGFR Kinase Assay (TR-FRET, 2 mM ATP)
[4] = read-out: EGFR Wildtyp- 2 mM ATP IC50 [mol/l] (median)
[5] = EGFR Wildtyp- 2 mM ATP IC50 [mol/l] (median)

Sequence of human CSNK1D (P48730 whole entry): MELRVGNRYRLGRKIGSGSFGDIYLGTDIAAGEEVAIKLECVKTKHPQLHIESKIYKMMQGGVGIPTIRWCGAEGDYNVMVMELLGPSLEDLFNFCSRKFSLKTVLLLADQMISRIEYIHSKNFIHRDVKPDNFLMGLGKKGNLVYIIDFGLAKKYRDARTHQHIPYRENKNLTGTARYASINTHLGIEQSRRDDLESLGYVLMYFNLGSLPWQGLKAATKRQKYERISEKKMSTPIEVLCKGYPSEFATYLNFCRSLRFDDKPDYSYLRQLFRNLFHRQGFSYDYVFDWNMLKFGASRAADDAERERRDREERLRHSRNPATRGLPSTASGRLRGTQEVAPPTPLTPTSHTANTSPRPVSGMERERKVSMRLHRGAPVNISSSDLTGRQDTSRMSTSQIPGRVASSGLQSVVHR
Sequence of human CSNK1A1 (P48729 whole entry): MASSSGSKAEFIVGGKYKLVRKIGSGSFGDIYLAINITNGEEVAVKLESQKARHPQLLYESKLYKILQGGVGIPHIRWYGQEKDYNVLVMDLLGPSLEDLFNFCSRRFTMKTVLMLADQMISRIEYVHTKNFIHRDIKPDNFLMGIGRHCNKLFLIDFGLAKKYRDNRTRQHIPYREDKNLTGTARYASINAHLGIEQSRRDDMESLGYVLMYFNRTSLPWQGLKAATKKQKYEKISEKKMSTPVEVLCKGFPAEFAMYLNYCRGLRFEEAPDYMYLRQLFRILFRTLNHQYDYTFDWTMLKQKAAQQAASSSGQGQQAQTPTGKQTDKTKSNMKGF
Sequence of wild-type Epidermal Growth Factor Receptor (EGFR) (P00533 669-1210): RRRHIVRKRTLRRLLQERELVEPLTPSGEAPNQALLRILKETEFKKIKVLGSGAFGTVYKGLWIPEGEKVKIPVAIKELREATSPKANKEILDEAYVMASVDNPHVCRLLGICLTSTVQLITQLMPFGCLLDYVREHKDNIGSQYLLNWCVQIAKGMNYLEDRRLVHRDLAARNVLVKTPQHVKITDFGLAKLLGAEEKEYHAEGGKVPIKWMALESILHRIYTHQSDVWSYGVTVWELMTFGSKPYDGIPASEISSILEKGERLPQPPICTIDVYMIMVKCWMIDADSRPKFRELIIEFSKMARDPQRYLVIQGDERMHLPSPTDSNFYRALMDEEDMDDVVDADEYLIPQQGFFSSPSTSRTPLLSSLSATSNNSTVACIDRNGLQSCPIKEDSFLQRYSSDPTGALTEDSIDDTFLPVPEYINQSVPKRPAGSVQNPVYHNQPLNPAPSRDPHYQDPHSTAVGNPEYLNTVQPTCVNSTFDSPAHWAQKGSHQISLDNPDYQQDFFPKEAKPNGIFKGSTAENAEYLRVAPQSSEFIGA

| Compound | IC50 [1] | IC50 [2] | IC50 [3, 4] | IC50 [3, 5] |
| --- | --- | --- | --- | --- |
| C[C@H](C(=O)Nc1cc(-c2[nH]c3c(c2Nc2ccccc2)C(=O)N(C)CC3)ccn1)c1ccc(F)cc1 (single isomer, unassigned) [Example 5] | 63.4 nM | 12.1 nM | – | – |
| CN1CCc2[nH]c(-c3ccnc(NC(=O)Cc4ccc(F)cc4)c3)c(Nc3ccccc3)c2C1=O [Example 1, N-[4-(3-anilino-5-methyl-4-oxo-4,5,6,7-tetrahydro-1H-pyrrolo[3,2-c]pyridin-2-yl)pyridin-2-yl]-2-(4-fluorophenyl)acetamide] | 28.4 nM | 5.64 nM | 1200 nM | – |
| C[C@@H](C(=O)Nc1cc(-c2[nH]c3c(c2Nc2ccccc2)C(=O)N(C)CC3)ccn1)c1ccc(F)cc1 (single isomer, unassigned) [Example 6] | 1600 nM | 49.6 nM | – | 16.1 µM and 15.6 µM and 18.2 µM and > 20 µM (2×) and 15.9 µM and 17.1 µM |
| CC(C(=O)Nc1cc(-c2[nH]c3c(c2Nc2ccccc2)C(=O)N(C)CC3)ccn1)c1ccc(F)cc1 (stereo not drawn) [Example 4, N-[4-(3-anilino-5-methyl-4-oxo-4,5,6,7-tetrahydro-1H-pyrrolo[3,2-c]pyridin-2-yl)pyridin-2-yl]-2-(4-fluorophenyl)propanamide] | 115 nM | 15.1 nM | > 20000 nM | 12600 nM and 11200 nM |
